PubChem BioAssay AID1033 (Sanford-Burnham Center for Chemical Genomics, 2008)
Active and inactive are the calls of the source. The rule behind the calls is not given here.

molecular target: Chaperone protein DnaK (Escherichia coli (strain K12)) (UniProt P0A6Y8); test: E. coli DnaK SBD ligand binding – biophysical, NMR, chaperone (AID 1033); settings: Purified DnaK SBD
Sequence (P0A6Y8 whole entry, looked up): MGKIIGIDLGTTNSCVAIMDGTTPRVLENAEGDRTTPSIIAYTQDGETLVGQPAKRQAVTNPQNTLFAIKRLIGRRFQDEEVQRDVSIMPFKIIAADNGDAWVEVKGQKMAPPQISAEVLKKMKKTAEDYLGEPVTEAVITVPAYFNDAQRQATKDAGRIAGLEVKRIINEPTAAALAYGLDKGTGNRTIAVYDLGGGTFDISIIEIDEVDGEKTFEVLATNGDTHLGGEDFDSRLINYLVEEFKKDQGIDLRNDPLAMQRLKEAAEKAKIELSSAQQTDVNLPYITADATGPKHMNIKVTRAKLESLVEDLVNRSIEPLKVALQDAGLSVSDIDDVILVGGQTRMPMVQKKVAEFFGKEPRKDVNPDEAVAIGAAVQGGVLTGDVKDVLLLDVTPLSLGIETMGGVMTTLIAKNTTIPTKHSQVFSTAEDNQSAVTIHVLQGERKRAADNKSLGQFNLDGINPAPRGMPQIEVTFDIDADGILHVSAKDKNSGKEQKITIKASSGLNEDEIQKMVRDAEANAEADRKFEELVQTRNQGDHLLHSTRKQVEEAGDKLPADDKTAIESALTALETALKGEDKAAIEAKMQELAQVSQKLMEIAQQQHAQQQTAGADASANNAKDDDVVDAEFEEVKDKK

| Structure (SMILES) | Kd |
| --- | --- |
| C[C@@H]1OC(O[C@H]2C(O[C@H]3CC[C@@]4(C)C(CC[C@]5(C)C4CC=C4C6CC(C)(C)CC[C@]6(C(=O)O)CC[C@]45C)[C@]3(C)CO)OC[C@H](O)[C@@H]2O)[C@H](O)[C@H](O)[C@H]1O (some centres not stated) | > 4 mM (inactive) |
| O=C(c1nc2ccccc2s1)N1CCSCC1 | > 4 mM (inactive) |
| OCCNc1ccccn1 | > 4 mM (inactive) |
| NC(=S)NC(=O)CN1C(=O)c2ccccc2C1=O | > 4 mM (inactive) |
| COc1cc(C/C=C/c2ccccc2)c(OC)cc1O | > 4 mM (inactive) |
| O=C(Nc1cccnc1)Nc1ccc2c(c1)OCO2 | > 4 mM (inactive) |
| CCC(C)C(=O)c1c(O)c(C)c2oc3c(C)c(O)c(C(=O)C(C)CC)c(O)c3c2c1O (configuration not stated) | > 4 mM (inactive) |
| NC(N)=NCCCCN=C(N)N | > 4 mM (inactive) |
| c1cncc(Nc2nc(-c3cccnc3)cs2)c1 | > 4 mM (inactive) |
| CP(C)(=O)c1cccc(C(=O)O)c1 | > 4 mM (inactive) |
| COc1cccc(NC(=O)c2cccs2)c1 | > 4 mM (inactive) |
| CC1(C)Cc2cccc(CO)c2O1 | > 4 mM (inactive) |
| Cc1cc(N(CN2CCCC2=O)C(=O)c2ccccc2)no1 | > 4 mM (inactive) |
| COc1cc(/C=C/C(=O)/C=C(O)/C=C/c2ccc(O)c(OC)c2)ccc1O | > 4 mM (inactive) |
| CC(C)Nc1ncnc2c1nnn2C | > 4 mM (inactive) |
| Cc1cc(=O)cc(C)n1-c1ccccc1N | > 4 mM (inactive) |
| NC(=O)CSc1nc2ccccc2o1 | > 4 mM (inactive) |
| COc1cc(CNC(=O)CCCC/C=C/C(C)C)ccc1O | > 4 mM (inactive) |
| CC1(C)Oc2ccc3ccc(=O)oc3c2CC1O (configuration not stated) | > 4 mM (inactive) |
| CSc1nnc2c(n1)OC(C)=Nc1ccccc1-2 | > 4 mM (inactive) |
| c1ccc(Cn2c(Nn3cnnc3)nc3ccccc32)cc1 | > 4 mM (inactive) |
| Oc1cccc(N2CCOCC2)c1 | > 4 mM (inactive) |
| CCOC(=O)c1csc(C)n1 | > 4 mM (inactive) |
| COC(=O)c1ccccc1N(C)S(C)(=O)=O | > 4 mM (inactive) |

| Structure (SMILES) | Kd |
| --- | --- |
| O=C(O)c1ccc(NCc2cccnc2)cc1 | > 4 mM (inactive) |
| CCCNC(=O)CSc1ncccc1C(=O)O | > 4 mM (inactive) |
| CC(=O)Nc1cccc(N2C(=O)CCC2=O)c1 | > 4 mM (inactive) |
| CN1CCC(=NNC(=O)c2ccco2)CC1 | > 4 mM (inactive) |
| COc1ccc(-c2coc3cc(O)ccc3c2=O)c(OC)c1 | > 4 mM (inactive) |
| COC(=O)Nc1ccc2ncn(C)c(=O)c2c1 | > 4 mM (inactive) |
| Cc1ccc(NC(=O)C2CCN(S(C)(=O)=O)CC2)cc1 | > 4 mM (inactive) |
| CC(C)=CC(=O)Nc1ccc2c(c1)OCO2 | > 4 mM (inactive) |
| CC(C)CCCC(C)[C@H]1CCC2C3CC[C@@H]4C[C@H](O)CC[C@]4(C)C3CC[C@@]21C (some centres not stated) | > 4 mM (inactive) |
| O=C(Nc1cccnc1)c1c(F)c(F)c(F)c(F)c1F | > 4 mM (inactive) |
| COc1cccc(S(=O)(=O)Nc2cccnc2)c1 | > 4 mM (inactive) |
| Nc1ncnc2c1ncn2C1C[C@H](O)[C@@H](CO)O1 (some centres not stated) | > 4 mM (inactive) |
| O=C(Cc1ccc(F)cc1)Nc1ncccn1 | > 4 mM (inactive) |
| COc1nc(C#N)c(N2CCOCC2)o1 | > 4 mM (inactive) |
| CN1CCN(Cc2cccnc2)CC1 | > 4 mM (inactive) |
| CC(C)NS(=O)(=O)c1ccc(N)cc1 | > 4 mM (inactive) |
| CN1C(=O)c2ccc(C(=O)NC3CCCCC3)cc2C1=O | > 4 mM (inactive) |
| O=C(NCN1CCOCC1)c1cnccn1 | > 4 mM (inactive) |
| O=C(O)CN1CCNCC1 | > 4 mM (inactive) |
| CC1(C)C(=O)[C@@H]2O[C@@H]2[C@@]2(C)C1C[C@@H](O)[C@]1(C)C2CC[C@@]2(C)[C@H](c3ccoc3)OC(=O)C3OC321 (some centres not stated) | > 4 mM (inactive) |
| COC(=O)c1cccc2cc[nH]c12 | > 4 mM (inactive) |
| O=S(=O)(Cc1ccccc1Cl)Nc1ccccn1 | > 4 mM (inactive) |
| CN(C)c1ccc2c(=O)[nH][nH]c(=O)c2c1 | > 4 mM (inactive) |
| Cc1occc1C(=O)Nc1nnc(-c2ccncc2)s1 | > 4 mM (inactive) |

| Structure (SMILES) | Kd |
| --- | --- |
| CCn1nnc2c(NCc3ccccn3)ncnc21 | > 4 mM (inactive) |
| NCc1csc(-c2ccccc2)n1 | > 4 mM (inactive) |
| Cc1onc(-c2ccc(F)cc2)c1C(=O)O | > 4 mM (inactive) |
| COC(=O)C(O)c1ccccc1 (configuration not stated) | > 4 mM (inactive) |
| CSc1nc2cc(F)c(F)cc2n1C | > 4 mM (inactive) |
| O=c1[nH]cc(NC(=S)N2CCOCC2)c(=O)[nH]1 | > 4 mM (inactive) |
| O=S1(=O)CCC(NC(=S)Nc2ccccc2)C1 (configuration not stated) | > 4 mM (inactive) |
| CNC(=S)NCCN1CCOCC1 | > 4 mM (inactive) |
| CN(C)C(=O)c1ccc(-c2n[nH]c(=O)c3ccccc23)cc1 | > 4 mM (inactive) |
| CCCCCC1C(=O)CCC1CC(=O)O (configuration not stated) | > 4 mM (inactive) |
| CC(C)NC1CS(=O)(=O)CC1O (configuration not stated) | > 4 mM (inactive) |
| NCCCCNCCCN | > 4 mM (inactive) |
| O=c1c(O)cc([C@H]2Oc3cc(O)cc(O)c3C[C@H]2O)cc2c([C@H]3Oc4cc(O)cc(O)c4C[C@H]3O)cc(O)c(O)c12 | > 4 mM (inactive) |
| c1ccc2[nH]c(SCc3cscn3)nc2c1 | > 4 mM (inactive) |
| Cn1ccnc1C(O)c1ccccc1 (configuration not stated) | > 4 mM (inactive) |
| CC(C)C(C)/C=C/C(C)C1CCC2C3=CC=C4CC(O)CCC4(C)C3CCC21C (configuration not stated) | > 4 mM (inactive) |
| O=C(/C=C/c1ccc(O)c(O)c1)O[C@@H]1C[C@](O)(C(=O)O)C[C@@H](O)[C@H]1O | > 4 mM (inactive) |
| CC(C)=CCCC1(C)C=Cc2c(O)c3c(c(CC=C(C)C)c2O1)OC12C(=CC4CC1C(C)(C)OC2(C/C=C(/C)C(=O)O)C4O)C3=O (configuration not stated) | > 4 mM (inactive) |
| Brc1cccc(-c2nnco2)c1 | > 4 mM (inactive) |
| NCC(=O)c1ccccc1 | > 4 mM (inactive) |
| Cc1c(C(=O)OC(C)C)[nH]c2c1C(=O)CCC2 | > 4 mM (inactive) |
| CC[C@@]1(O)C[C@H](O)c2c(cc3c(c2O)C(=O)c2c(O)ccc(O)c2C3=O)[C@H]1C(=O)OC | > 4 mM (inactive) |
| NC(=O)c1ccccc1NC(=O)C1CC1 | > 4 mM (inactive) |
| COC(=O)NNc1ncnc(N)c1[N+](=O)[O-] | > 4 mM (inactive) |

| Structure (SMILES) | Kd |
| --- | --- |
| CC(C)C(C)/C=C/C(C)[C@H]1CCC2C3=CCC4CC(=O)CC[C@]4(C)C3CC[C@@]21C (some centres not stated) | > 4 mM (inactive) |
| O=C(O)CCC(=O)Nc1ccccn1 | > 4 mM (inactive) |
| C=CCn1c(N)c(C(=O)N2CCOCC2)sc1=S | > 4 mM (inactive) |
| CCSc1nc(N)c(NC(=O)c2ccco2)c(=O)[nH]1 | > 4 mM (inactive) |
| O=C(O)CN1C(=O)c2ccc(C(=O)O)cc2C1=O | > 4 mM (inactive) |
| Cc1cn(C(=O)CN2C(=O)c3ccccc3C2=O)c(C)n1 | > 4 mM (inactive) |
| COc1ccc(N2C(=O)CCC2=O)c(OC)c1 | > 4 mM (inactive) |
| Cn1c([O-])c([N+](C)(C)C)c(=O)n(C)c1=O | > 4 mM (inactive) |
| C=C[C@@](C)(O)CCC1C(=C)C[C@H](O)C2C(C)(C)CCCC12C (some centres not stated) | > 4 mM (inactive) |
| Nc1ccc(NC(=O)c2ccco2)c(Cl)c1 | > 4 mM (inactive) |
| N#Cc1cc(-c2ccccc2)oc1N | > 4 mM (inactive) |
| Cc1nc2ccccc2c(=O)n1-c1cccc(O)c1 | > 4 mM (inactive) |
| O=C(O)C1CSC(c2ccco2)N1 (configuration not stated) | > 4 mM (inactive) |
| N/N=C/c1cccnc1 | > 4 mM (inactive) |
| CS(=O)(=O)NN=C1CCCCC1 | > 4 mM (inactive) |
| O=c1oc2c(O)c(O)cc3c(=O)oc4c(O)c(O)cc1c4c23 | > 4 mM (inactive) |
| O=S(=O)(CCN1CCCC1)c1ccccc1 | > 4 mM (inactive) |
| Cc1sc2nc(SC3CCOC3=O)[nH]c(=O)c2c1C (configuration not stated) | > 4 mM (inactive) |
| COc1ccc(-c2oc3cc(O[C@H]4O[C@H](CO)[C@@H](O)[C@H](O)[C@H]4O)c(OC)c(O)c3c(=O)c2OC)cc1O | > 4 mM (inactive) |
| O=C(CSc1nnc2ccccn12)N1CCOCC1 | > 4 mM (inactive) |
| Cc1ccc(OCC(=O)n2cnnc2N)c(C)c1 | > 4 mM (inactive) |
| O=C(O)C1CSC(c2cc3ccccc3nc2Cl)N1 (configuration not stated) | > 4 mM (inactive) |
| CC(=O)Nc1c(C)n(C)n(-c2ccccc2)c1=O | > 4 mM (inactive) |
| Cc1cc(C)n2c(SCc3cccs3)nnc2n1 | > 4 mM (inactive) |

| Structure (SMILES) | Kd |
| --- | --- |
| CS(=O)(=O)c1ccc2nc(N)sc2c1 | > 4 mM (inactive) |
| CC(=O)Oc1cc2c(c(C)c1OC(C)=O)CC=C1[C@@]2(C)CC[C@@]2(C)C3C[C@](C)(C(=O)O)CC[C@]3(C)CC[C@]12C (some centres not stated) | > 4 mM (inactive) |
| O=C(CSc1ncn[nH]1)c1ccc2c(c1)OCO2 | > 4 mM (inactive) |
| O=c1/c(=C\c2cccnc2)sc2nc3ccccc3n12 | > 4 mM (inactive) |
| CSc1nc(=O)[nH]c2c1CCC2 | > 4 mM (inactive) |
| O=c1sc2ccccc2n1CN1CCOCC1 | > 4 mM (inactive) |
| CC(C)c1ccc2c(c1)CCC1[C@](C)(CN)CCC[C@]21C (some centres not stated) | > 4 mM (inactive) |
| NC(=O)c1cc(N)ccc1N1CCCCC1 | > 4 mM (inactive) |
| O=C(O)c1ccccc1C(=O)NCC1CCCO1 (configuration not stated) | > 4 mM (inactive) |
| Cc1csc(NC(=O)c2ccoc2C)n1 | > 4 mM (inactive) |
| Cc1ccc(SCCN2C(=O)NC(C)(C)C2=O)cc1 | > 4 mM (inactive) |
| COc1ccc(-c2coc3cc(OC)cc(OC)c3c2=O)cc1 | > 4 mM (inactive) |
| Cc1ccc(CNc2ccc(O)cc2)cc1 | > 4 mM (inactive) |
| Cn1c(=O)cc(O)c2ccccc21 | > 4 mM (inactive) |
| O=C1C2C3C=CC(C3)C2C(=O)N1c1cccnc1 (configuration not stated) | > 4 mM (inactive) |
| Cc1cc(C)nc(NC(N)=NCc2ccco2)n1 | > 4 mM (inactive) |
| COc1cccc(/C=C2/SC(N)=NC2=O)c1 | > 4 mM (inactive) |
| O=C(O)c1ccccc1N1CCOCC1 | > 4 mM (inactive) |
| NCc1ccc2c(c1)OCO2 | > 4 mM (inactive) |
| COC(=O)c1cccc(N)c1 | > 4 mM (inactive) |
| COc1ccc2c(c1OC)C(=O)N(c1ncn[nH]1)C2 | > 4 mM (inactive) |
